Here are results for two compounds from US4711877A, “6-pen-vasopressin compounds” (SmithKline Beckman Corporation, priority 1985, dated 1987).

Positions of bridges follow the written chain, without caps; N, C: chain ends. Non-standard residues stand in square brackets, D forms with d. Residues, ends and D or L forms follow the SMILES beside them. Pen = CC(C)(S)[C@H](N)C(=O)O; Mpa = O=C(O)CCS

Assay [1] deals with T1, vasopressin receptor sites (Rattus norvegicus, UniProt P30560).
T1 construct: from tissue; host or cells: rat liver tissue
Kind of assay: Binding activity in rat liver tissue (KB), protocol of Stassen et al. An excerpt:
(§1) The binding activity in hog and rat liver tissue, as well as the antagonistic activity in the hydropenic rat, of the compounds according to this invention is illustrated by the following results which were obtained using testing protocols which are described in the literature [F. Stassen, J. Pharmacology and Experimental Therapeutics, 223 50 (1982)]: […]

In assay [2] the target is T2, vasopressin receptor sites (Sus scrofa, UniProt P32307).
T2 construct: from tissue; renal medulla by own knowledge of the cited protocol
Kind of assay: Binding activity in hog tissue (KB), protocol of Stassen et al.
Excerpt: as §1

T2 sequence (P32307 whole entry): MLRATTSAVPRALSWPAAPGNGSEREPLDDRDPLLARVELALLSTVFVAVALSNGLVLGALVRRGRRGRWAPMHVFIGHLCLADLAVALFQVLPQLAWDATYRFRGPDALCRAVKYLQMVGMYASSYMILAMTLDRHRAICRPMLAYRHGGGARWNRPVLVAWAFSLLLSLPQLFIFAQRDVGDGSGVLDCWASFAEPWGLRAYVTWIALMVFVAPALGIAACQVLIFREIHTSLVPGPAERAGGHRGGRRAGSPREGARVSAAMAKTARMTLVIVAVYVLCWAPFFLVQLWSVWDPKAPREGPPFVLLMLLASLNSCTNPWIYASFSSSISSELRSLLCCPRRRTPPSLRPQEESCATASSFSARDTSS
T1 sequence (P30560 whole entry): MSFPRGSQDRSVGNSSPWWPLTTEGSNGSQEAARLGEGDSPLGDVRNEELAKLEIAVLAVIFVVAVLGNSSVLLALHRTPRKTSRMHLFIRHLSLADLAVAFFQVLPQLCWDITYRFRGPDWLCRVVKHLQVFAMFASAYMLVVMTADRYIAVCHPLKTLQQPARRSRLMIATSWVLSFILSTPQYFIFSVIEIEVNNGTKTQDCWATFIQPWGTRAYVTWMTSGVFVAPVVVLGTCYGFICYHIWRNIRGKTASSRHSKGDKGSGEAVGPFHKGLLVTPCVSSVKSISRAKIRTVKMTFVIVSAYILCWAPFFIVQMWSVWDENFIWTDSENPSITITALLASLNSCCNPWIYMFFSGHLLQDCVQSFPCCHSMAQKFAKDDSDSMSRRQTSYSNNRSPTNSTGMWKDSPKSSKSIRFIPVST

As for `CCOc1ccc(C[C@H]2NC(=O)CCSSC(C)(C)[C@@H](C(=O)N3CCC[C@H]3C(=O)N[C@@H](CCCNC(=N)N)C(=O)NCC(N)=O)NC(=O)[C@H](CC(N)=O)NC(=O)[C@H](C(C)C)NC(=O)[C@H](Cc3ccccc3)NC2=O)cc1` [Compound A, Mpr--D-Tyr(Et)--Phe--Val--Asn--Pen--Pro--Arg--Gly(NH2)] ([Mpa][dY](Et)FVN[Pen]PRG-NH2; disulfide 1-6), the Kb was 0.11 µM in assay [1] and 0.19 µM in assay [2].

In turn, `CCOc1ccc(C[C@H]2NC(=O)CCSSC[C@@H](C(=O)N3CCC[C@H]3C(=O)N[C@@H](CCCNC(=N)N)C(=O)NCC(N)=O)NC(=O)[C@H](CC(N)=O)NC(=O)[C@H](C(C)C)NC(=O)[C@H](Cc3ccccc3)NC2=O)cc1` [Compound B, Mpr--D-Tyr(Et)--Phe--Val--Asn--Cys--Pro--Arg--Gly(NH2), reference compound] ([Mpa][dY](Et)FVNCPRG-NH2; disulfide 1-6) gave a Kb in assay [2] of 9.9 µM.
